The results in this text go back to patent publication US11566007B2, “Ras inhibitors” (Revolution Medicines, Inc., priority 2019, dated 2023).

Type in all cases: biochemical
One experiment has as its target K-Ras G12C (Homo sapiens (Human), UniProt P01116+P62937, G12C). The experiment is described as follows: Ras-Raf (BRAF RBD) disruption / FRET / MOA assay, KRAS G12C. The conditions noted are these: KRAS G12C; Ras-Raf disruption/FRET/MOA assay; read-out: IC50* KRAS G12C FRET data. A digest of the protocol:
(§1)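 Compounds, top final concentration 30 μM in 10-point 3-fold series, incubated 3 hours at 25° C with nucleotide-loaded Ras, cyclophilin A and BRAF RBD.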

Another experiment deals with KRAS G12S (Homo sapiens (Human), UniProt P01116+P62937, G12S). The experiment is described as follows: Ras-Raf (BRAF RBD) disruption / FRET / MOA assay, KRAS G12S. The conditions noted are these: Ras-Raf disruption/FRET/MOA assay; class symbols; read-out: KRAS G12S FRET data IC50. The gist of the method: as §1
Chain of KRAS G12S (P01116-2 other isoform, or with tags, fused parts or gaps G12S): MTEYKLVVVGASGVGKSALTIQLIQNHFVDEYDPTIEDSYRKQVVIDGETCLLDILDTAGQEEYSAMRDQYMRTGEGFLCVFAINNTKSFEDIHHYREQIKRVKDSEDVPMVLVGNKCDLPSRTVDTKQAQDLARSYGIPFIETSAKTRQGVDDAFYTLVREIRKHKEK
Chain of KRAS G12S (P62937 whole entry): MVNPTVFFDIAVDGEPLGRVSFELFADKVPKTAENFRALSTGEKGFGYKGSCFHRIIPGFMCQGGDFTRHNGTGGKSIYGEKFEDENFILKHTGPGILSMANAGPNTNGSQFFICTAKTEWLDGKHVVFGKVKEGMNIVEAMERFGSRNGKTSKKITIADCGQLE
Another experiment deals with KRAS G12D (Homo sapiens (Human), UniProt P01116+P62937, G12D). The experiment in a line: Ras-Raf (BRAF RBD) disruption / FRET / MOA assay, KRAS G12D. The conditions noted are these: Ras-Raf disruption/FRET/MOA assay; class symbols; read-out: KRAS G12D FRET data IC50. A digest of the protocol:
as §1

The target of the next experiment is KRAS G12V (Homo sapiens (Human), UniProt P01116+P62937, G12V). The experiment is described as follows: Ras-Raf (BRAF RBD) disruption / FRET / MOA assay, KRAS G12V. The conditions noted are these: read-out: IC50* KRAS G12V FRET data. The gist of the method:
as §1

Another experiment addresses KRAS WT (Homo sapiens (Human), UniProt P01116+P62937). The experiment in a line: Ras-Raf (BRAF RBD) disruption / FRET / MOA assay, KRAS WT. The conditions noted are these: read-out: IC50* KRAS WT FRET data. The gist of the method:
as §1

The target of another experiment is KRAS G13D (Homo sapiens (Human), UniProt P01116+P62937, G13D). The experiment is described as follows: Ras-Raf (BRAF RBD) disruption / FRET / MOA assay, KRAS G13D. The settings on record: read-out: IC50* KRAS G13D FRET data. A digest of the protocol:
as §1

Another experiment concerns the target KRAS Q61H (Homo sapiens (Human), UniProt P01116+P62937, Q61H). The experiment is described as follows: Ras-Raf (BRAF RBD) disruption / FRET / MOA assay, KRAS Q61H. The settings on record: Ras-Raf disruption/FRET/MOA assay; class symbols; read-out: KRAS Q61H FRET data IC50. The gist of the method:
(§2)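 TR-FRET disruption of nucleotide-loaded Ras binding to BRAF RBD via compound-driven ternary complex with cyclophilin A. Compound as 10-point 3-fold series from 30 μM final, 3 h at 25° C, then anti-His Eu-W1024 (10 nM) and anti-GST allophycocyanin (50 nM) for 1.5 h. IC50 from decreased FRET ratio versus DMSO.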

A further experiment addresses NRAS Q61K (Homo sapiens (Human), UniProt P01111+P62937, Q61K). The experiment is described as follows: Ras-Raf (BRAF RBD) disruption / FRET / MOA assay, NRAS Q61K. The conditions noted are these: NRAS Q61K; Ras-Raf disruption/FRET/MOA assay; read-out: IC50* NRAS Q61K FRET data. A digest of the protocol:
as §2

The target of the next experiment is NRAS WT (Homo sapiens (Human), UniProt P01111+P62937). The experiment is described as follows: Ras-Raf (BRAF RBD) disruption / FRET / MOA assay, NRAS WT. The conditions noted are these: read-out: IC50* NRAS WT FRET data. The gist of the method:
as §2

The structures appear in SMILES notation.

Chain of K-Ras G12C (P01116-2 other isoform, or with tags, fused parts or gaps G12C): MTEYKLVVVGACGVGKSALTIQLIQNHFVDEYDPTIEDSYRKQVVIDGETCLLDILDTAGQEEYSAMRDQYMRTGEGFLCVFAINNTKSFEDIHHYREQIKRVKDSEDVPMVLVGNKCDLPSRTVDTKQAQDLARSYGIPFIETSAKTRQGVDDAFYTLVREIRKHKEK
Chain of K-Ras G12C (P62937 whole entry): as the sequence (P62937 whole entry) above
Chain of NRAS WT (P01111 whole entry): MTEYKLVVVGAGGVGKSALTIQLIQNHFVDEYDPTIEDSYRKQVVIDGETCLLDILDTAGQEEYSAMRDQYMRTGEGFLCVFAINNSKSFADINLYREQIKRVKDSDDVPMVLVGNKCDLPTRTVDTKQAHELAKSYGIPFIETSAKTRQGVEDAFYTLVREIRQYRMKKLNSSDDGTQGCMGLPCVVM
Chain of NRAS WT (P62937 whole entry): as the sequence (P62937 whole entry) above
Chain of KRAS Q61H (P01116-2 other isoform, or with tags, fused parts or gaps Q61H): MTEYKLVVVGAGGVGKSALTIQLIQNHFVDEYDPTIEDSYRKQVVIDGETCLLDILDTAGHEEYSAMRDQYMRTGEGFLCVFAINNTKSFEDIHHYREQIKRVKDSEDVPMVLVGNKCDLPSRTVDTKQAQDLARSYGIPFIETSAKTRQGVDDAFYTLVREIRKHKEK
Chain of KRAS Q61H (P62937 whole entry): as the sequence (P62937 whole entry) above
Chain of KRAS G13D (P01116-2 other isoform, or with tags, fused parts or gaps G13D): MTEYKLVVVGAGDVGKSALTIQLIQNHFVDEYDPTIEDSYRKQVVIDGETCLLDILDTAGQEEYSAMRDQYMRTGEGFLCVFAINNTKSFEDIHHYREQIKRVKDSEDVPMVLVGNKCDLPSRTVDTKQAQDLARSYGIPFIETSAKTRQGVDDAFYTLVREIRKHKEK
Chain of KRAS G13D (P62937 whole entry): as the sequence (P62937 whole entry) above
Chain of KRAS G12D (P01116-2 other isoform, or with tags, fused parts or gaps G12D): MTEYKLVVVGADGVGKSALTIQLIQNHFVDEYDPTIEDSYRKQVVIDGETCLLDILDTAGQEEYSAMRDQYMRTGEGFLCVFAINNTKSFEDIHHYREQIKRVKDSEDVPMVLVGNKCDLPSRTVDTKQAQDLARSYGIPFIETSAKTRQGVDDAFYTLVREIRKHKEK
Chain of KRAS G12D (P62937 whole entry): as the sequence (P62937 whole entry) above
Chain of NRAS Q61K (P01111 whole entry Q61K): as the sequence (P01111 whole entry) above, with Q61K counted along it
Chain of NRAS Q61K (P62937 whole entry): as the sequence (P62937 whole entry) above
Chain of KRAS WT (P01116-2 other isoform, or with tags, fused parts or gaps): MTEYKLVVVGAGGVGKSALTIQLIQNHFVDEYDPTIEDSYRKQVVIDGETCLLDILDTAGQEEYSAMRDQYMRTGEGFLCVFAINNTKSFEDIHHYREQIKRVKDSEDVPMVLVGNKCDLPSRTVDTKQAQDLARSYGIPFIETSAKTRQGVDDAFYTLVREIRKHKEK
Chain of KRAS WT (P62937 whole entry): as the sequence (P62937 whole entry) above
Chain of KRAS G12V (P01116-2 other isoform, or with tags, fused parts or gaps G12V): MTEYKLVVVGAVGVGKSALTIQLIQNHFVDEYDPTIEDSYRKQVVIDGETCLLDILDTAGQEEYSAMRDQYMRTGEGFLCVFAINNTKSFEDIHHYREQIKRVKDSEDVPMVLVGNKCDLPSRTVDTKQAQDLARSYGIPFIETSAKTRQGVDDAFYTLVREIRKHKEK
Chain of KRAS G12V (P62937 whole entry): as the sequence (P62937 whole entry) above

Take `CCn1c(-c2cccnc2[C@H](C)OC)c2c3cc(ccc31)-c1cc(CF)cc(c1)C[C@H](NC(=O)[C@H](C(C)C)N1CC[C@]3(CCN(C(=O)C#CC(C)(C)N(C)C)C3)C1=O)C(=O)N1CCC[C@H](N1)C(=O)OCC(C)(C)C2` (atropisomer, axis not shown) [Example A673]: the IC50 at K-Ras G12C is less than 10 nM; on KRAS G12S, 1000 to 10000 nM; at KRAS G12D, 1000 to 10000 nM; on KRAS G12V, 100 to 1000 nM; at KRAS WT, 1000 to 10000 nM; at KRAS G13D it was 1000 to 10000 nM. The half-maximal inhibitory concentration (IC50) on KRAS Q61H is 100 to 1000 nM; at NRAS Q61K it was 1000 to 10000 nM; at NRAS WT, 1000 to 10000 nM.
Consider `CCn1c(-c2cccnc2[C@H](C)OC)c2c3cc(ccc31)-c1cccc(c1)C[C@H](NC(=O)[C@H](C(C)C)N(C)C(=O)C1(F)CCN(C(=O)/C=C/CN(C)C)CC1)C(=O)N1CCC[C@H](N1)C(=O)OCC(C)(C)C2` (atropisomer, axis not shown) [Example A685], for which the concentration for half-maximal inhibition (IC50) on K-Ras G12C was 10 to 100 nM; at KRAS G12S, 100 to 1000 nM; at KRAS G12D, 100 to 1000 nM; at KRAS G12V, 100 to 1000 nM; at KRAS WT it was 100 to 1000 nM; at KRAS G13D, 100 to 1000 nM. Moreover, the IC50 on KRAS Q61H, on NRAS Q61K and on NRAS WT was 100 to 1000 nM in each case.
Consider `CO[C@@H](C)c1ncccc1-c1c2c3cc(ccc3n1CC(F)(F)F)-c1cccc(c1)C[C@H](NC(=O)[C@H](C(C)C)N1CC[C@]3(CCN(C(=O)C#CC(C)(C)N(C)C)C3)C1=O)C(=O)N1CCC[C@H](N1)C(=O)OCC(C)(C)C2` (atropisomer, axis not shown) [Example A689], for which the half-maximal inhibitory concentration (IC50) was less than 10 nM on K-Ras G12C; 100 to 1000 nM at KRAS G12S; 1000 to 10000 nM at KRAS G12D; 1000 to 10000 nM on KRAS G12V; 1000 to 10000 nM on KRAS WT; 1000 to 10000 nM at KRAS G13D. Also, the IC50 lay within 100 to 1000 nM on KRAS Q61H, 1000 to 10000 nM on NRAS Q61K and 1000 to 10000 nM on NRAS WT.
Consider `CCn1c(-c2cccnc2[C@H](C)OC)c2c3cc(ccc31)-c1csc(n1)C[C@H](NC(=O)[C@H](C(C)C)N(C)C(=O)N(C)C1CN(C(=O)/C=C/C3CN(C)C3)C1)C(=O)N1CCC[C@H](N1)C(=O)OCC(C)(C)C2` (atropisomer, axis not shown) [Example A690], for which the IC50 is 100 to 1000 nM at K-Ras G12C; 100 to 1000 nM at KRAS G12S; 1000 to 10000 nM on KRAS G12D; 1000 to 10000 nM at KRAS G12V; 100 to 1000 nM on KRAS WT; 100 to 1000 nM on KRAS G13D. Further, the half-maximal inhibitory concentration (IC50) on KRAS Q61H, at NRAS Q61K and on NRAS WT was 100 to 1000 nM throughout.
With `CO[C@@H](C)c1ncccc1-c1c2c3cc(ccc3n1CC(F)(F)F)-c1cccc(c1)C[C@H](NC(=O)[C@@H](COC1CN(C(=O)C#CC3(C)OCCO3)C1)C(C)C)C(=O)N1CCC[C@H](N1)C(=O)OCC(C)(C)C2` (atropisomer, axis not shown) [Example A703], the IC50 on K-Ras G12C was 10 to 100 nM; on KRAS G12S it was greater than 10000 nM; on KRAS G12D, greater than 10000 nM; on KRAS G12V, 1000 to 10000 nM; on KRAS WT, 1000 to 10000 nM; on KRAS G13D, greater than 10000 nM. Further, the half-maximal inhibitory concentration (IC50) was 1000 to 10000 nM on KRAS Q61H, greater than 10000 nM at NRAS Q61K and 1000 to 10000 nM at NRAS WT.
Turning to `C=CC(=O)N1CC(N(C)C(=O)N(C)[C@H](C(=O)N[C@H]2Cc3nc(cs3)-c3ccc4c(c3)c(c(-c3cccnc3[C@H](C)OC)n4CC(F)(F)F)CC(C)(C)COC(=O)[C@@H]3CCCN(N3)C2=O)C(C)C)C1` (atropisomer, axis not shown) [Example A711], the IC50 on K-Ras G12C was less than 10 nM; on KRAS G12S it was 100 to 1000 nM; at KRAS G12D it was 100 to 1000 nM; on KRAS G12V, 100 to 1000 nM; on KRAS WT it was 10 to 100 nM; on KRAS G13D, 100 to 1000 nM. Besides, the IC50 on KRAS Q61H, at NRAS Q61K and on NRAS WT was 10 to 100 nM in each case.
